Data reported in patent US20100062441A1, “C-MET MUTATIONS AND USES THEREOF” (priority 2007, published 2010).
Several values for one entry are separate records, joined by “and”; a condition that tells them apart may be missing. Equal entries are not always repeated.

Assays:
[1] = system: wild type human c-Met transgenic C. elegans; settings: Wt c-Met
Description: (§1) To examine the effect of human c-met gene expression in C. elegans, both wild-type c-Met cDNA and mutant c-Met cDNA were individually micro-injected into young adult wild type N2 hermaphrodite gonads (gonad syncitium), at a concentration of 25 μg/ml. The constructs for the mutant c-Met cDNA were generated as described above. Control animals (N2) were injected with vector alone. Injected animals were individually cloned and their progeny were observed under dissecting microscope. Progenies were isolated and examined for visible morphological abnormalities such as defects in vulval formation, body morphology and locomotion. Individually cloned transgenic animals were further analyzed for fecundity and viability.
(§2) Animals in the progeny harboring a visible phenotype such as vulva defect, body morphology change, locomotion defect, and paralysis; and animals showing hyperactivity were isolated, individually cloned and examined with dissecting microscope. For detailed analysis of the phenotype, individual animals were mounted on an agar pad and observed under a Nikon Eclipse E600 fluorescence microscope equipped for Nomarski optics. Images were taken by a Hamamatsu Photonics CCD camera, and processed using the Metamorph digital imaging software (Siddiqui et al., Am J Physiol Lung Cell Mol Physiol 286, L1016-26 (2004)).
(§3) To determine whether a c-Met germline mutation alone is sufficient for lung cancer development or whether in order to develop lung cancer development a synergism of c-Met with smoking is necessary, the C. elegans transgenic animals described above were exposed to nicotine. Nicotine response experiments were performed in M9 buffer as previously described by Waggoner, et al. (Waggoner et al., J Neurosci 20, 8802-11 (2000)). Animals were cultured at 20° C. on nematode growth media (NGM) plates seeded with E. coli strain OP50. To examine the nicotine dose response, individual young adult hermaphrodites were placed in 6-well microtiter plate in M9 buffer at different concentrations of nicotine. Following one hour incubation with nicotine medium plates at 20° C., total numbers of eggs laid by each individual animal were counted.

[2] = system: T1010I c-Met transgenic C. elegans
Description: as §1, §2, §3

[3] = system: R988C c-Met transgenic C. elegans
Description: as §1, §2, §3

C. elegans N2 wild type = system: C. elegans N2 wild type
Description: as §1, §2, §3

[4] = system: reactive oxygen species (ROS) in MU melanoma cells; assay: Reactive oxygen species measurement by DHE immunofluorescence; format: cell-based, human; settings: HGF 40 ng/ml for 7.5 min; DHE
Description: 5×10^4 MU melanoma cells were plated in 35 mm petri dishes. After 24 hrs MU Melanoma cells were kept in serum free media containing 0.5% BSA with and without 5 μM SU11274 for 12 hrs. Cells were treated with 40 ng/ml HGF for 7.5 min, then treated with DHE 10 μM (molecular probes Inc, Eugene, Oreg.) for 30 min, after which they were visualized under a fluorescent Olympus microscope IX81, 20× objective, ND3 and Rhodamine filter sets. Fluorescence was then quantified using Image J and graphed.
The endogenous levels of reactive oxygen species (ROS) was also analyzed in MU melanoma cells with and without HGF treatment using DHE by fluorescence microscopy. DHE is a redox sensitive probe that has widely been used to detect intracellular superoxide anion. The relative levels of ROS were increased in response to HGF by 47%, and SU11274 decreased the ROS response to HGF to 3%.

NSCLC = settings: in combination with chemotherapy; cited from earlier work
[5] = chronic exposure with nicotine (20 μm)
[6] = nicotine (20 μM) for 24 hours or more

**Q.** With `CN1CCCC1c1cccnc1` (stereo not shown) [nicotine] as the compound, how does the “Body Shape Changes” value [1, 5] read?
**A.** The value was 12% and 12 ± 0.22 %.

**Q.** What about the “Growth Arrest” value [1, 5] of the same compound?
**A.** Its value is 9.72% and 9.72 ± 0.16 %.

**Q.** What about the “Locomotion Defects” value [1, 5] of the same compound?
**A.** Its value is 11% and 11 ± 0.09 %.

**Q.** And the Paralysis [1, 5]?
**A.** Its Paralysis is 8% and 8 ± 0.08 %.

**Q.** What about the viability ([1]; in the presence of nicotine) of the same compound?
**A.** Its viability is 65.06%.

**Q.** And the vulval defects [1, 6]?
**A.** The vulval defects was 6%.

**Q.** And the “Body Shape Changes” value [2, 5]?
**A.** The value was 21% and 21 ± 0.14 %.

**Q.** What about the “Growth Arrest” value [2, 5] of the same compound?
**A.** Its value is 29% and 29.0 ± 0.11 %.

**Q.** And the viability ([2]; in the presence of nicotine)?
**A.** The viability was 4.58%.

**Q.** And the vulval defects [2, 6]?
**A.** The vulval defects was 28%.

**Q.** And the “Body Shape Changes” value [3, 5]?
**A.** Its value is 18% and 18 ± 0.13 %.

**Q.** What about the “Growth Arrest” value [3, 5] of the same compound?
**A.** The value was 22.9% and 22.9 ± 0.41 %.

**Q.** What about the viability ([3]; in the presence of nicotine) of the same compound?
**A.** The viability was 30.54%.

**Q.** What about the vulval defects [3, 6] of the same compound?
**A.** Its vulval defects is 15%.

**Q.** What about the “Body Shape Changes” value (C. elegans N2 wild type; [5]) of the same compound?
**A.** Its value is 3% and 3 ± 0.21 %.

**Q.** And the “Growth Arrest” value (C. elegans N2 wild type; [5])?
**A.** Its value is 1.23% and 1.23 ± 0.19 %.

**Q.** And the “Locomotion Defects” value (C. elegans N2 wild type; [5])?
**A.** Its value is 1% and 1 ± 0.18 %.

**Q.** What about the Paralysis (C. elegans N2 wild type; [5]) of the same compound?
**A.** Its Paralysis is 2% and 2 ± 0.02 %.

**Q.** What about the viability (C. elegans N2 wild type; in the presence of nicotine) of the same compound?
**A.** The viability was 91.94%.

**Q.** And the vulval defects (C. elegans N2 wild type; [6])?
**A.** Its vulval defects is 2%.

**Q.** Which “increase of relative levels of ROS” value [4] does the source give for “HGF: hepatocyte growth factor, the ligand for c-Met” here?
**A.** Its value is 47%.

**Q.** With “bevacizumab: targeted therapy against VEGF” as the compound, how does the “enhancement of median overall survival” value (NSCLC) read?
**A.** The value was 2.3 months.
